No end group written: not given here.

These results are taken from patent publication US20190046627A1, “USE OF A GNP-LLO91-99 COMPLEX FOR THE TREATMENT AND PREVENTION OF CANCER” (FUNDACIÓN INSTITUTO DE INVESTIGACIÓN MARQUES DE VALDECILLA, priority 2016, published 2019).

Assay [1] concerns murine melanoma B16F10. Description: Metastasis in the lung from murine melanoma (Example 3). The format is in vivo, mice. The note with it: s.c. B16F10, 50 μg/ml inoculated in the tumors for 5 days. As to the method:
For the study of metastasis in the lung of murine melanoma following the use of different therapies and their comparison with that of the invention, 1×10^6 cells of murine melanoma B16F10 were inoculated in a subcutaneous manner just like in FIG. 1. Following 7 days post-inoculation, 50 μg/ml of the following therapeutic particles were inoculated in the tumors for 5 days: GNP (empty gluconanoparticles), GNP-LLO91-99 (gluconanoparticles synthesized with the peptide from listeriolysin O of Listeria monocytogenes, LLO91-99), GNP-GAPDH1-22 (nanoparticles synthesized with the peptide from glyceraldehyde-3-phosphate dehydrogenase of Listeria monocytogenes, GAPDH1-22) or no particle (NT). As a control, the vector previously used in therapy was also included consisting of dendritic cells loaded with the LLO91-99 (1×10^6 DC-LLO91-99) peptide.
Following this treatment, the mice were sacrificed and the lungs removed, which were washed with PBS. Subsequently, the tumor nodules were counted under a magnifying glass, which were observed as black spots on the lungs.

In assay [2] the test system is murine melanoma B16OVA. Kind of assay: Reduction of tumor size, monotherapy or combination with immunological control point immunotherapies (Example 4). The note with it: s.c. B16OVA. It counts as in vivo, mice. As to the method:
For the study of the reduction of the tumor in adults and increasing the survival making use of different immunotherapies with immunological control points and their comparison as a monotherapy or combination therapy with that of the invention, 5×10^5 cells of murine melanoma B16OVA were inoculated in a subcutaneous manner just like in FIG. 1 (Example 2). Following 7 days post-inoculation, 50 μg/ml of the therapy of the invention were inoculated in the tumors for 7 days as a monotherapy, GNP-LLO91-99 (gluconanoparticles synthesized with the peptide from listeriolysin O of Listeria monocytogenes, LLO91-99), or in combination with the following immunotherapies with immunological control points, anti-CTLA-4 or anti-PD-1 in a dose of 100 μg/mouse every 2 days up to a total of 7 days or no particle (NT).
Following this treatment, the mice were sacrifice at different times following the therapies, 14, 21 or 30 days in total. The results are shown in FIG. 3A following the sacrifice of the mice, recovery of the tumors and measuring of their size with a gauge. In another similar experiment, the mice are not sacrificed and the effect of the therapies is evaluated in the survival of the mice.

In assay [3] the test system is murine melanoma B16F10. Description: Reduction of the size of the tumor in newborns (Example 6). It counts as in vivo. The note with it: 9-day old Balb/c mice, s.c. B16F10 established 5 days, 50 μg/ml in the tumors for 5 days. How it is done:
For the study of the reduction of the size of the tumor in newborns making use of different therapies and their comparison with that of the invention, 5×10^5 cells of murine melanoma B16F10 were inoculated in a subcutaneous manner in the interscapular area of 9-day old female mice of the Balb/c strain.
Following 5 days post-inoculation, 50 μg/ml of the following therapies were inoculated in the tumors for 5 days: LLO91-99 (only peptide from listeriolysin O of Listeria monocytogenes, LLO91-99), GNP (empty gluconanoparticles), GNP-LLO91-99 (gluconanoparticles synthesized with the peptide from listeriolysin O of Listeria monocytogenes, LLO91-99), GNP-GAPDH1-22 (nanoparticles synthesized with the peptide from glyceraldehyde-3-phosphate dehydrogenase of Listeria monocytogenes, GAPDH1-22). As a control, a vector previously used in therapy was also included, dendritic cells loaded with the LLO91-99 (1×10^5 DC-LLO91-99) peptide.
Following this treatment, the mice were sacrificed and the tumors recovered, measuring their size with a gauge.

The test system of assay [4] is A-375, human melanoma. Description: In vitro apoptosis-necrosis, flow cytometry annexin V-APC / 7-ADD. To be noted: 10 μg/ml, 16 hours, A375. It counts as cell-based. As to the method: (§1) 1.—Tumor cells. The cells used are: Hepa1-6, murine hepatocarcinoma, TC-1, murine lung carcinoma; B16F10, murine melanoma; A-375, human melanoma; hamster melanoma (ATCC).
(§2) 2.—In vitro apoptosis-necrosis. The different tumor cells (1×10^6 cells) are treated with 10 μg/ml of the GNP-LLO91-99 gold nanoparticles in culture plates, 16 hours prior to the apoptosis-necrosis analysis, including cells of each type of tumor without treatment with the gold nanoparticles (control). Following washing, the cells are analyzed by means of flow cytometry using two specific products, annexin V conjugated with the APC fluorochrome and the fluorescent marker for binding to DNA, 7-ADD (7-amino-actinomycin D). Apoptosis and necrosis in the tumor cells are analyzed by means of the differential marking with annexin V-APC and 7-ADD expressed as percentages. While the necrosis is indicated as the percentage of cells doubly marked with annexin V-APC and 7-ADD, the apoptosis is expressed as the percentage of cells marked only with annexin V.
(In general: In flow cytometry, cells or beads pass a laser one at a time.)

Assay [5] has as its system B16F10, murine melanoma. The description is as above. The format is cell-based. To be noted: 10 μg/ml, 16 hours. As to the method:
as §1, §2

Assay [6] has as its system Hepa1-6, murine hepatocarcinoma. Described as above. To be noted: 10 μg/ml, 16 hours. The format is cell-based. As to the method:
as §1, §2

Assay [7] has as its system TC-1, murine lung carcinoma. The description is as above. It counts as cell-based. To be noted: 10 μg/ml, 16 hours. How it is done: as §1, §2
The test system of assay [8] is ovary tumor cells. Kind of assay: Subcutaneous tumor transplant model (Example 9). The format is in vivo, mice. To be noted: subcutaneous transplants, C57BL/6, 50 μg/ml in-situ for 7 days.

As to “GNP-LLO91-99: gluconanoparticles synthesized with the peptide from listeriolysin O of Listeria monocytogenes, LLO91-99 (GYKDGNEYI; also: gold glyconanoparticle conjugate; UniProt P13128 91-99, looked up, fragment)”, in assay [1], the “formation of metastasis in the lungs (in words)” value is given as “prevents the formation of metastasis in the lungs”. Also, in assay [1] (lung tumor nodules counted), the “prevention of the formation of metastasis in the lungs” value is on record as “more than 95%”. Also, the tumor regression result is on record as “up to 90%” in assay [2] (combination therapy with anti-CTLA-4 (100 μg/mouse every 2 days), at 14 days); “up to 90%” in assay [2] (combination therapy with anti-CTLA-4 (100 μg/mouse every 2 days), at 30 days); 100% in assay [2] (combination with anti-PD-1 (100 μg/mouse every 2 days), at 14 days); 100% in assay [2] (combination with anti-PD-1 (100 μg/mouse every 2 days), at 30 days); 80% in assay [2] (monotherapy, 50 μg/ml in the tumors, 7 days); 90% in assay [2] (monotherapy, 50 μg/ml in the tumors, at 14 days). Besides, the tumor regression in assay [2] (monotherapy, 50 μg/ml in the tumors, at 30 days) is reported as 90%. In assay [3], the “tumor regression in newborns” value was 95%. Besides, the “effect of inducing apoptosis” value in assay [4], in assay [5], in assay [6] and in assay [7] was “much more pronounced” each time. Besides, the “induction of tumor apoptosis and necrosis” value in assay [6] was “induce both tumor apoptosis and necrosis”; in assay [7] it was “induce both tumor apoptosis and necrosis”. In assay [8], the “in vivo inhibitory effect of the tumor” value was “does not cause any effect”.
